How the values were obtained:
Type in all cases: cell-based
[1] = target: Mer (Homo sapiens (Human), UniProt Q12866); test: Mer autophosphorylation ELISA in transient transfected 293A cells; conditions: cellular, MERTK-transfected 293A cells, phospho-Mer ELISA
Description: 293A cells (Thermo Fisher #R70507) were seeded at 1.5×10^6 cells/well onto 100 mm dish (Greiner #664169), in DMEM (Thermo Fisher #11995-040) containing 10% FBS (Thermo Fisher #26140-079), 1% MEM NEAA (Thermo Fisher #11140-050), 1% GlutaMax (Thermo Fisher #35050-061), and 1% Penicillin Streptomycin (Thermo Fisher #15140-122). 293A cells were incubated at 37° C., 5% CO2 for 24 h and then transfected with 6 μg MERTK DNA (Genecopoeia #EX-Z8208-M02) using TransIT LT1 transfection reagent (Mirus-Bio #MIR2305). After 24 h incubation, the transfected 293A cells were seeded at 1×10^5 cells/well onto 96-well plates (Corning #3904) in DMEM growth medium overnight. Test compounds were serially diluted to produce an 8-point dose curve in fresh serum-free medium to a final concentration of 0.3% DMSO (vehicle) and added to the cells and incubated for 1 h. Cells were then immediately lysed with 150 μL of cold 1× lysis buffer [20 mM Tris, 137 mM sodium chloride, 2 mM EDTA, 10% glycerol, 1% NP-40 alternative, 1 mM activated sodium orthovanadate, 1 mM PefaBloc SC (Sigma-Aldrich #11429868001), protease/phosphatase inhibitor tablet (Thermo Fisher #A32959)]. Lysates were clarified by centrifugation and 50 μL/well added into the human phospho-Mer DuoSet IC ELISA (R&D Systems #DYC2579-2). Assay was performed according to manufacturer's instructions and sample phospho-Mer concentrations were extrapolated using human phospho-Mer control (R&D Systems #841793) as a standard. Positive control wells (100% activity) contained DMSO-treated cell lysates. Negative control wells (0% activity) contained reference inhibitor-treated cell lysates. IC50 values were calculated by nonlinear regression analysis using a 4-parameter logistic curve fit in ActivityBase XE (IDBS).

[2] = target: Met (Homo sapiens (Human), UniProt P08581); test: Met autophosphorylation ELISA in PC-3 cells; conditions: cellular, HGF-stimulated, phospho-Met ELISA, read-out: c-Met IC50
Chain of Met (P08581 25-1390): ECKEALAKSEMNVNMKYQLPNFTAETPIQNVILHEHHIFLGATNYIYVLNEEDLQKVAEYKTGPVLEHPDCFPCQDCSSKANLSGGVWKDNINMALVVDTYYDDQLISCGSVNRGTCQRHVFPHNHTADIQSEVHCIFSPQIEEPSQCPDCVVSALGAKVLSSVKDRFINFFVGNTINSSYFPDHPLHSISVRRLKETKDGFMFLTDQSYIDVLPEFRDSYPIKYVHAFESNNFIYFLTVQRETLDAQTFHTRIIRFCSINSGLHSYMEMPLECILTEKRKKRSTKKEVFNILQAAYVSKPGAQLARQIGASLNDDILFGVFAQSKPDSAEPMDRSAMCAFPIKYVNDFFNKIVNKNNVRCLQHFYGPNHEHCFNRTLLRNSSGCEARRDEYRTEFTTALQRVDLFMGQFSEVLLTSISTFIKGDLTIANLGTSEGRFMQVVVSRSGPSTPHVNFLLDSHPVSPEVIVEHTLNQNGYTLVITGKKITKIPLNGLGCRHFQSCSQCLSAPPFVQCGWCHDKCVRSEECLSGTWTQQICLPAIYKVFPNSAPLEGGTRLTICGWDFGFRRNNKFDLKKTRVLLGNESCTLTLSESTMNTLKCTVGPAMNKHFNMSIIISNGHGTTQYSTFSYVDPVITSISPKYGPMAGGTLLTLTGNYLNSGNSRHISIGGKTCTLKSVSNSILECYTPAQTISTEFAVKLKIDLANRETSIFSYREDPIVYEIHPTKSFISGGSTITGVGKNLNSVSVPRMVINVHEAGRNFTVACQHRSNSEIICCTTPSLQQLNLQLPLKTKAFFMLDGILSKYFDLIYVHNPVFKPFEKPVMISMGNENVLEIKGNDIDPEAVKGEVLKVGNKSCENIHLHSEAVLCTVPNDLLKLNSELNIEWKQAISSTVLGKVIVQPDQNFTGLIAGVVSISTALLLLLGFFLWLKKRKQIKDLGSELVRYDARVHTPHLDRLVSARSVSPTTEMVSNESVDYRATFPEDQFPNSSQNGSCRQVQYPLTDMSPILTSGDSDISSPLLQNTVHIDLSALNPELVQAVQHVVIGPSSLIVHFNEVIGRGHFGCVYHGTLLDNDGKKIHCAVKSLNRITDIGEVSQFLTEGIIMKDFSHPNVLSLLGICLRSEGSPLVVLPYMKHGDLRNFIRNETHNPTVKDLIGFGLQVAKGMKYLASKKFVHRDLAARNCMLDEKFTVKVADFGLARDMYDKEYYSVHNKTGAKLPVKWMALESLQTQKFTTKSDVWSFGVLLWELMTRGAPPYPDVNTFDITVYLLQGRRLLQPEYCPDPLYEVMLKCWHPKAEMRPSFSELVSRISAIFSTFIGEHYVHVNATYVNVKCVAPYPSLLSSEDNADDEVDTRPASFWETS
Description: PC-3 prostate cancer cells (ATCC #CRL-1435) were seeded at 4×10^4 cells/well onto 24-well plates (Greiner #662165), in DMEM (Thermo Fisher #11995-040) containing 10% FBS (Thermo Fisher #26140-079), 1% MEM NEAA (Thermo Fisher #11140-050), 1% GlutaMax (Thermo Fisher #35050-061), and 1% Penicillin Streptomycin (Thermo Fisher #15140-122). PC-3 cells were incubated at 37° C., 5% CO2 for 24 h and then starved for 3 h in serum-free medium. Test compounds were serially diluted to produce an 8-point dose curve in fresh serum-free medium to a final concentration of 0.3% DMSO (vehicle) and added to the cells and incubated for 1 h. Cells were then stimulated with 100 ng/mL recombinant human HGF (R&D Systems #294-HG-250) for 10 min, washed with cold PBS, and immediately lysed with 130 μL of cold 1× lysis buffer [20 mM Tris, 137 mM sodium chloride, 2 mM EDTA, 10% glycerol, 1% NP-40 alternative, 1 mM activated sodium orthovanadate, 1 mM PefaBloc SC (Sigma-Aldrich #11429868001), and protease/phosphatase inhibitor tablet (Thermo Fisher #A32959)]. Lysates were clarified by centrifugation and 100 μL/well added into the PathScan phospho-Met (panTyr) Sandwich ELISA (Cell Signaling Technology #7333). Assay was performed according to manufacturer's instructions. Positive control wells (100% activity) contained HGF-stimulated, DMSO-treated cell lysates. Negative control wells (0% activity) contained HGF-stimulated, reference inhibitor-treated cell lysates. IC50 values were calculated by nonlinear regression analysis using a 4-parameter logistic curve fit in ActivityBase XE (IDBS).

[3] = target: AXL (Homo sapiens (Human), UniProt P30530); test: AXL autophosphorylation ELISA in A-172 cells; conditions: cellular, Gas6-stimulated, phospho-AXL ELISA
Chain of AXL (P30530 26-894): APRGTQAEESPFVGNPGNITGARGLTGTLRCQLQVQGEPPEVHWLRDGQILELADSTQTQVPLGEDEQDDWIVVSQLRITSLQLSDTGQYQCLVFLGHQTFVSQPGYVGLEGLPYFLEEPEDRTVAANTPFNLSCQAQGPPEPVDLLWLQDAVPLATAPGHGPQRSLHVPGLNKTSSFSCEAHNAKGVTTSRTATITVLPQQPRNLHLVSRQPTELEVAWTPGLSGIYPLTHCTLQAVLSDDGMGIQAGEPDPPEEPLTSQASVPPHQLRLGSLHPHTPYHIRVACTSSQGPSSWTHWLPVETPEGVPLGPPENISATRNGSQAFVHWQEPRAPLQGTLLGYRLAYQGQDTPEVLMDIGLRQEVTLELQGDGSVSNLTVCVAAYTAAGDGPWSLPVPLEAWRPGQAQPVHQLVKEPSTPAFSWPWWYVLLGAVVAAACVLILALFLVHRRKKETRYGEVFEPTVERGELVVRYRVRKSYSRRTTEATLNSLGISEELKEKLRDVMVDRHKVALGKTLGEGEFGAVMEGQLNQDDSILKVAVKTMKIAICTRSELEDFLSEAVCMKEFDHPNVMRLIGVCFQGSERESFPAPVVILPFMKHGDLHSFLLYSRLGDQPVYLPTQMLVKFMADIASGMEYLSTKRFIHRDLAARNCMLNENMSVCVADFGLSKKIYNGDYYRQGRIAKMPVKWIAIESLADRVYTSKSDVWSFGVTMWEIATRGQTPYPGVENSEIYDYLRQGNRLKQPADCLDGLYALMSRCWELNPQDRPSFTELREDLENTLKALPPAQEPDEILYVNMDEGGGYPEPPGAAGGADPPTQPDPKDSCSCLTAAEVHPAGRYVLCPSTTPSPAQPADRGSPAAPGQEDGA
Description: A-172 glioblastoma cells (ATCC #CRL-1620) were seeded at 2.5×10^5 cells/well onto 24-well plates (Greiner #662165), in […] (Thermo Fisher #11995-040) containing 10% FBS (Thermo Fisher #26140-079), […] (Thermo Fisher #11140-050), […] (Thermo Fisher #35050-061), and 1% Penicillin Streptomycin (Thermo Fisher #15140-122). A-172 cells were incubated at 37° C., […] for 24 hand then starved for 24 h in serum-free medium. Test compounds were serially diluted to produce an 8-point dose curve in fresh serum-free medium to a final concentration of 0.3% DMSO (vehicle) and added to the cells and incubated for 1 h. Cells were then stimulated with 1 μg/mL recombinant human Gas6 (R&D Systems #885-GSB-500) for 15 min, washed with cold PBS, and immediately lysed with 150 μL of cold 1× lysis buffer [20 mM Tris, 137 mM sodium chloride, 2 mM EDTA, 10% glycerol, 1% NP-40 alternative, 1 mM activated sodium orthovanadate, 1 mM PefaBloc SC (Sigma-Aldrich #11429868001), protease/phosphatase inhibitor tablet (Thermo Fisher #A32959)]. Lysates were collected and 100 μL/well added into the human phospho-AXL DuoSet IC ELISA (R&D Systems #DYC2228-2). Assay was performed according to manufacturer's instructions and sample phospho-AXL concentrations were extrapolated using human phospho-AXL control (R&D Systems #841645) as a standard. Positive control wells (100% activity) contained Gas6-stimulated, DMSO-treated cell lysates. Negative control wells (0% activity) contained Gas6-stimulated, reference inhibitor-treated cell lysates. IC50 values were calculated by nonlinear regression analysis using a 4-parameter logistic curve fit in ActivityBase XE (IDBS).

[4] = target: KDR (Homo sapiens (Human), UniProt P35968); test: KDR autophosphorylation ELISA in HUVEC cells; conditions: cellular, VEGF165-stimulated, phospho-KDR ELISA
Chain of KDR (P35968 20-1356): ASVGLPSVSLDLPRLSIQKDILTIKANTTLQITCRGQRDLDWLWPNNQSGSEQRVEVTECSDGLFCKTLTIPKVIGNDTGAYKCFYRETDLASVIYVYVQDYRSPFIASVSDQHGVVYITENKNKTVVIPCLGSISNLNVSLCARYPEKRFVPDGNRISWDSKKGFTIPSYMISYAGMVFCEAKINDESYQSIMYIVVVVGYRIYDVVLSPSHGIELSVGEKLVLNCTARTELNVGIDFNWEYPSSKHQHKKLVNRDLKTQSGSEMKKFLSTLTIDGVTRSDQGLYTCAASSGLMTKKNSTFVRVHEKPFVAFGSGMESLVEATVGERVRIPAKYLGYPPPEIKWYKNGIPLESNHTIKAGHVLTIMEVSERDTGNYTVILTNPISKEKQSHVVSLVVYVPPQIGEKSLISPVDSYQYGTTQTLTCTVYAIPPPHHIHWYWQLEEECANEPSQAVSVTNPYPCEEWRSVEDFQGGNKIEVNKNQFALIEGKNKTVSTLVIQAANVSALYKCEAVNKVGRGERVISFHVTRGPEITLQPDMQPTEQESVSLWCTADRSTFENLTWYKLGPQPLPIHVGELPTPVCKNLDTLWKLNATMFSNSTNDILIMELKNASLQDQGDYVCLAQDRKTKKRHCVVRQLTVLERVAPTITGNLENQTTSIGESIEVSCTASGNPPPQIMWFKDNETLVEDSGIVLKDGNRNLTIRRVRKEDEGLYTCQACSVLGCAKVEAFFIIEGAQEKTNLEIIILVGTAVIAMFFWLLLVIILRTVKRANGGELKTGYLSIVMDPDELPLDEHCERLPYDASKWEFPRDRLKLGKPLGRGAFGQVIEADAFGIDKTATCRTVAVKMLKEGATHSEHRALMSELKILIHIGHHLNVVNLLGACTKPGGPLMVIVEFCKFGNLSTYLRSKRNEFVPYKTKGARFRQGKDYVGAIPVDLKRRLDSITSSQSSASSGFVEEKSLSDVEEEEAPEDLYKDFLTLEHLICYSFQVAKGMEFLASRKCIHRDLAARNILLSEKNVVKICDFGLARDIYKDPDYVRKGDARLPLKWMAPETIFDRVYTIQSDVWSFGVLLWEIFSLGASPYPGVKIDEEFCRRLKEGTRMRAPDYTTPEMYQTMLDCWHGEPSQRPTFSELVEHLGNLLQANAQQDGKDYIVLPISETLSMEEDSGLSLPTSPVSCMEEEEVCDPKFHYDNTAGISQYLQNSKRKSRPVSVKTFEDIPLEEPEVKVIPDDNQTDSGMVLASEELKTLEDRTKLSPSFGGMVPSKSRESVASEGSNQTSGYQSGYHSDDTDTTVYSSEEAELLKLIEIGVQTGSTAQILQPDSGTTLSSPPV
Description: Human umbilical vein endothelial cells or HUVEC (Lonza #C2519A) were seeded at 2×10^4 cells/well onto 96-well plates (Corning #3904), in EGM-2 growth medium (Lonza #CC-3162) containing 1% Penicillin Streptomycin (Thermo Fisher #15140-122). HUVEC cells were incubated at 37° C., 5% CO2 for 24 h and then starved for 24 h in serum-free EBM-2 basal medium (Lonza #CC-3156) containing 1% Penicillin Streptomycin. Test compounds were serially diluted to produce an 8-point dose curve in fresh serum-free medium to a final concentration of 0.3% DMSO (vehicle) and added to the cells and incubated for 1 h. Cells were then stimulated with 100 ng/mL recombinant human VEGF165 (R&D Systems #293-VE-500) for 5 min, washed with cold PBS, and immediately lysed with 130 μL of cold 1× lysis buffer [20 mM Tris, 137 mM sodium chloride, 2 mM EDTA, 10% glycerol, 1% NP-40 alternative, 1 mM activated sodium orthovanadate, 1 mM PefaBloc SC (Sigma-Aldrich #11429868001), protease/phosphatase inhibitor tablet (Thermo Fisher #A32959)]. Lysates were collected and 100 μL/well added into the human phospho-KDR DuoSet IC ELISA (R&D Systems #DYC1766-2). Assay was performed according to manufacturer's instructions and sample phospho-KDR concentrations were extrapolated using human phospho-KDR control (R&D Systems #841421) as a standard. Positive control wells (100% activity) contained VEGF165-stimulated, DMSO-treated cell lysates. Negative control wells (0% activity) contained non-stimulated cell lysates. IC50 values were calculated by nonlinear regression analysis using a 4-parameter logistic curve fit in ActivityBase XE (IDBS).

Chain of Mer (Q12866 21-999): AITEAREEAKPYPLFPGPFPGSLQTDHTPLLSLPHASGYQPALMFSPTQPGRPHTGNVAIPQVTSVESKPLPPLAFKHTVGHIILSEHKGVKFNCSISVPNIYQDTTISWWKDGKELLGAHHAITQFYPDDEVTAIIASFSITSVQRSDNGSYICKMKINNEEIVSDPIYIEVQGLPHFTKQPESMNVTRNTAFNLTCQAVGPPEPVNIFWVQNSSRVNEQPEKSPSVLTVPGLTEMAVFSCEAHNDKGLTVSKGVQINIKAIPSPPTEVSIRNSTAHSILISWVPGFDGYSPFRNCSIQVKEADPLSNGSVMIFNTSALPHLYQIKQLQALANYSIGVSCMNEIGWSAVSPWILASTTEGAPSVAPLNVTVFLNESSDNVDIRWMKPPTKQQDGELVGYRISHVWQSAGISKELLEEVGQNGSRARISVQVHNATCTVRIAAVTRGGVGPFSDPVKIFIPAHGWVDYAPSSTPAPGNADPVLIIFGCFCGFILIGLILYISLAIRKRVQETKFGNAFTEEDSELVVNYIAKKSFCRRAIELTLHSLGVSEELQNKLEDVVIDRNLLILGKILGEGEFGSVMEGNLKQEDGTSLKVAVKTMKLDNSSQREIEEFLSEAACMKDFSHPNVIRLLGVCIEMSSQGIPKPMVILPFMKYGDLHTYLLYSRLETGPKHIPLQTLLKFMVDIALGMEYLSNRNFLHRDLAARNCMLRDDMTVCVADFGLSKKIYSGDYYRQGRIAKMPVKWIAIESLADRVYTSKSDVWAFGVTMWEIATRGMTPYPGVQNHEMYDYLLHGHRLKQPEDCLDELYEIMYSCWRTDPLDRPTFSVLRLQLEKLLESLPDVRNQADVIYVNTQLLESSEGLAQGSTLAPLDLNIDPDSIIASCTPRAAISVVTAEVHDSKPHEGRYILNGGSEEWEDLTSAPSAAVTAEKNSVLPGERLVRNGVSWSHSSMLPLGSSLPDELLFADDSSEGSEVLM

## CNC(=O)c1cc2c(Oc3ncc(NC(=O)C4(C(=O)Nc5ccc(F)cc5)CC4)cc3Cl)ccnc2cc1OC [Compound 19, 1-N′-[5-Chloro-6-[7-methoxy-6-(methylcarbamoyl)quinolin-4-yl]oxypyridin-3-yl]-1-N-(4-fluorophenyl)cyclopropane-1,1-dicarboxamide]
[1]
  IC50: 10 to 100 nM
[2]
  IC50: 10 to 100 nM
[3]
  IC50: ≤ 10 nM
[4]
  IC50: > 300 nM

## CCNC(=O)c1cc2c(Oc3ncc(NC(=O)C4(C(=O)Nc5ccc(F)cc5)CC4)cc3Cl)ccnc2cc1OC [Compound 20, 1-N′-[5-Chloro-6-[6-(ethylcarbamoyl)-7-methoxyquinolin-4-yl]oxypyridin-3-yl]-1-N-(4-fluorophenyl)cyclopropane-1,1-dicarboxamide]
[1]
  IC50: 10 to 100 nM
[2]
  IC50: 10 to 100 nM
[3]
  IC50: 10 to 100 nM
[4]
  IC50: > 300 nM

## COc1cc2nccc(Oc3ncc(NC(=O)C4(C(=O)Nc5ccc(F)cc5)CC4)cc3F)c2cc1C(N)=O [Compound 21, 1-N′-[6-(6-Carbamoyl-7-methoxyquinolin-4-yl)oxy-5-fluoropyridin-3-yl]-1-N-(4-fluorophenyl)cyclopropane-1,1-dicarboxamide]
[1]
  IC50: 10 to 100 nM
[2]
  IC50: 10 to 100 nM
[3]
  IC50: ≤ 10 nM
[4]
  IC50: > 300 nM

## CNC(=O)c1cc2c(Oc3ncc(NC(=O)C4(C(=O)Nc5ccc(F)cc5)CC4)cc3F)ccnc2cc1OC [Compound 22, 1-N′-[5-Fluoro-6-[7-methoxy-6-(methylcarbamoyl)quinolin-4-yl]oxypyridin-3-yl]-1-N-(4-fluorophenyl)cyclopropane-1,1-dicarboxamide]
[1]
  IC50: 10 to 100 nM
[2]
  IC50: 10 to 100 nM
[3]
  IC50: ≤ 10 nM
[4]
  IC50: > 300 nM

## COCCOc1cc2nccc(Oc3ccc(NC(=O)C4(C(=O)Nc5ccc(F)cc5)CC4)cn3)c2nc1OC [Compound 114, 1-N-(4-Fluorophenyl)-1-N′-[6-[[6-methoxy-7-(2-methoxyethoxy)-1,5-naphthyridin-4-yl]oxy]pyridin-3-yl]cyclopropane-1,1-dicarboxamide]
[2]
  IC50: 100 to 300 nM
[3]
  IC50: 100 to 300 nM
[4]
  IC50: > 300 nM

## COCCOc1cc2nccc(Oc3ncc(NC(=O)C4(C(=O)Nc5ccc(F)cc5)CC4)cc3Cl)c2nc1OC [Compound 115, 1-N′-[5-Chloro-6-[[6-methoxy-7-(2-methoxyethoxy)-1,5-naphthyridin-4-yl]oxy]pyridin-3-yl]-1-N-(4-fluorophenyl)cyclopropane-1,1-dicarboxamide]
[2]
  IC50: 10 to 100 nM
[3]
  IC50: 100 to 300 nM
[4]
  IC50: > 300 nM

## COc1nc2c(Oc3ncc(NC(=O)C4(C(=O)Nc5ccc(F)cc5)CC4)cc3F)ccnc2cc1O [Compound 121, 1-N′-[5-Fluoro-6-[(7-hydroxy-6-methoxy-1,5-naphthyridin-4-yl)oxy]pyridin-3-yl]-1-N-(4-fluorophenyl)cyclopropane-1,1-dicarboxamide]
[2]
  IC50: > 300 nM
[3]
  IC50: > 300 nM
[4]
  IC50: > 300 nM

## COCCOc1nc2c(Oc3ncc(NC(=O)C4(C(=O)Nc5ccc(F)cc5)CC4)cc3F)ccnc2cc1OC [Compound 134, 1-N′-[5-Fluoro-6-[[7-methoxy-6-(2-methoxyethoxy)-1,5-naphthyridin-4-yl]oxy]pyridin-3-yl]-1-N-(4-fluorophenyl)cyclopropane-1,1-dicarboxamide]
[2]
  IC50: > 300 nM
[3]
  IC50: > 300 nM
[4]
  IC50: > 300 nM

## COc1cc2nccc(Oc3ncc(NC(=O)C4(C(=O)Nc5ccc(F)cc5)CC4)cc3F)c2nc1OCCCN1CCOCC1 [Compound 135, 1-N′-[5-Fluoro-6-[[7-methoxy-6-(3-morpholin-4-ylpropoxy)-1,5-naphthyridin-4-yl]oxy]pyridin-3-yl]-1-N-(4-fluorophenyl)cyclopropane-1,1-dicarboxamide]
[2]
  IC50: > 300 nM
[3]
  IC50: > 300 nM
[4]
  IC50: > 300 nM

## COc1cc2ncnc(Oc3ccc(NC(=O)C4(C(=O)Nc5ccc(F)cc5)CC4)cn3)c2nc1OC [Compound 145, 1-N′-[6-(6,7-Dimethoxypyrido[3,2-d]pyrimidin-4-yl)oxypyridin-3-yl]-1-N-(4-fluorophenyl)cyclopropane-1,1-dicarboxamide]
[2]
  IC50: > 300 nM
[3]
  IC50: 100 to 300 nM
[4]
  IC50: > 300 nM

## COCCOc1cc2ncnc(Oc3ccc(NC(=O)C4(C(=O)Nc5ccc(F)cc5)CC4)cn3)c2nc1OC [Compound 156, 1-N-(4-Fluorophenyl)-1-N′-[6-[6-methoxy-7-(2-methoxyethoxy)pyrido[3,2-d]pyrimidin-4-yl]oxypyridin-3-yl]cyclopropane-1,1-dicarboxamide]
[2]
  IC50: > 300 nM
[3]
  IC50: 10 to 100 nM
[4]
  IC50: > 300 nM

## COCCOc1cc2ncnc(Oc3ncc(NC(=O)C4(C(=O)Nc5ccc(F)cc5)CC4)cc3F)c2nc1OC [Compound 159, 1-N′-[5-Fluoro-6-[6-methoxy-7-(2-methoxyethoxy)pyrido[3,2-d]pyrimidin-4-yl]oxypyridin-3-yl]-1-N-(4-fluorophenyl)cyclopropane-1,1-dicarboxamide]
[2]
  IC50: > 300 nM
[3]
  IC50: > 300 nM
[4]
  IC50: > 300 nM

Reference: US11673897B2, “Compounds for the treatment of kinase-dependent disorders” (Exelixis, Inc., priority 2018, dated 2023)
